“And” between values parts separate entries of the source, which are not always exact repeats. Identical values can stand only once.
Assays:
Type in all cases: physicochemical
[1] = Sublimation test (cold finger, HPLC quantification of sublimate); settings: for Sublimation (result in words): conditions of the sublimation test, non-sublimating = less than 1% in 72 hours at 150 mBar, 60° C.; for Sublimate: drug substance, Pressure: 150 mbar, Test period: 72 hrs
Text: The property of sublimation can be observed and quantified with known methods to measure sublimation. For example, sublimation can be measured in an apparatus with a chamber in which the test compound is placed in its solid state and maintained in that state by controlled temperature. The gas phase in the chamber, optionally under low pressure, can be analyzed for content of test compound. It is also possible to continuously clear the test compound in the gas phase from the chamber either by a continuous renewal stream of a gas or by creating a sink for the test compound out of the gas phase, for example by a cold surface. The amount of material collected from sublimation or escaped from the sample by sublimation can be analyzed. The degree of sublimation is expressed as the fraction (as percentage) of the initial sample size.
The term ‘non-sublimating’ salt is defined to be a salt of S- or R-mirtazapine, from which less than 1% of the mirtazapine is sublimating from the sample, calculated on the basis of the amount of the base, when a sample of approximately 10 mg (for example an amount between 8-12 mg) is placed for the duration of 72 hours under standard conditions of 150 mBar pressure and 60° C. temperature.
Figure: Schematic presentation of the sublimation test equipment. A sample is placed on the bottom of a vessel, which is closed at the top by a vessel-shaped stopper into which cooling liquid (CL) is circulating and which vessel has an outlet connected to a vacuum pump (Vac). The vessel is placed in a closed chamber under constant temperature control (TC). A sublimate (Subl) can accumulate against the surface of the stopper within the vessel.
A sample (approximately 10 mg) was placed in a sample chamber of sublimation test equipment as illustrated in FIG. 1. The temperature in the sample chamber is controllable. The sample holder has a reduced pressure, which was 150 mBar by default. The sample chamber also consists of a section with reduced temperature (the “cold finger”), where the temperature is approximately 5° C. The majority of material that sublimates in the test sample with high temperature will precipitate on the cold finger. The amount of material on the cold finger after a test period of 72 hrs has been quantified using HPLC analysis. The degree of sublimation is expressed as the fraction material on the cold finger (as percentage) of the initial sample size. Additionally, the sublimation of active compound from tablets “drug product” has been tested.

[2] = Sublimation observations outside the standard test
[3] = Hygroscopicity (dynamic vapor sorption / water uptake from air); settings: for Hygroscopicity / affinity for water: environmental air, ambient conditions, method not stated; for Hygroscopicity: dynamic vapor sorption measurement
Procedure: To a solution of 3.01 g of S-mirtazapine in 5 ml of methanol was added at room temperature a solution of 1290 μl of hydrobromic acid in 20 ml of ethyl acetate. […] The mixture was cooled to 0° C. whereupon crystallization started. The white crystals were collected by filtration and were dried in a vacuum oven at 40° C. […] A water free drug substance sample attracts water when it comes in contact with environmental air, while it may loose water upon drying.

[4] = Temperature: 60° C., DL = level of detection

Question: For CN1CCN2c3ncccc3Cc3ccccc3C2C1.O=C(O)C(F)(F)F (stereo not drawn) [S-mirtazapine trifluoroacetic acid salt], which “Sublimation (result in words)” value ([1]; listed as trifluoroacetic acid salt of S- or R-mirtazapine, trifluoroacetic acid salt) is on record?
Answer: Its value is “showed sublimation”.

Question: And the “Sublimation (result in words)” value ([1]; trifluoroacetic acid salt)?
Answer: The value was “not a non-sublimating salt”.

Question: With CN1CCN2c3ncccc3Cc3ccccc3[C@H]2C1 [S-mirtazapine, 1,2,3,4,10,14b-hexahydro-2-methyl-pyrazino[2,1-a]pyrido[2,3-c][2]benzazepine, reference compound] as the compound, how does the “Sublimation (result in words)” value [1] read?
Answer: The value was “sublimates at the conditions used”.

Question: And the Sublimate ([1]; Temperature: 40° C., fraction of initial sample on cold finger, listed as S-mirtazapine Batch E)?
Answer: Its Sublimate is 0.75%.

Question: What about the Sublimate ([1]; Temperature: 40° C., fraction of initial sample on cold finger, listed as S-mirtazapine Batch J) of the same compound?
Answer: The Sublimate was 0.88%.

Question: And the Sublimate ([1]; Temperature: 60° C., DL = level of detection, listed as S-mirtazapine Batch E)?
Answer: The Sublimate was 5.32% and 2.22%.

Question: What about the Sublimate ([1]; Temperature: 60° C., DL = level of detection, listed as S-mirtazapine Batch J) of the same compound?
Answer: The Sublimate was 4.29%.

Question: What about the “Sublimation at ambient temperature” value ([2]; ambient temperature) of the same compound?
Answer: Its value is “slowly sublimating”.

Question: With Br.CN1CCN2c3ncccc3Cc3ccccc3[C@H]2C1 [S-mirtazapine•HBr, S-mirtazapine hydrobromic acid salt] as the compound, how does the “Sublimation (result in words)” value [1] read?
Answer: Its value is “do not sublimate”.

Question: And the “Hygroscopicity / affinity for water” value [3]?
Answer: The value was “forms a monohydrate under ambient conditions”.

Question: For CN1CCN2c3ncccc3Cc3ccccc3[C@H]2C1.Cl [S-mirtazapine•HCl, S-mirtazapine hydrochloric acid salt], which Sublimate [1, 4] is on record?
Answer: Its Sublimate is 0.2%.

Question: And the Hygroscopicity [3]?
Answer: Its Hygroscopicity is “very hygroscopic”.

Question: And the “Temperature above which the compound starts to sublime” value [2]?
Answer: The value was “above 170 °C”.

Question: Which “Sublimation (result in words)” value [1] does the source give for CN1CCN2c3ncccc3Cc3ccccc3[C@H]2C1.O=C(O)/C=C/C(=O)O [S-mirtazapine•fumaric acid, S-mirtazapine fumaric acid salt] here?
Answer: Its value is “do not sublimate”.

Question: And the “Hygroscopicity / affinity for water” value [3]?
Answer: The value was “attracts water from environmental air to form a hydrate”.

Question: Which results are given for CN1CCN2c3ncccc3Cc3ccccc3[C@H]2C1.O=C(O)/C=C\C(=O)O [S-mirtazapine•maleic acid, S-mirtazapine maleic acid salt]?
Answer: Sublimation (result in words) [1]: do not sublimate; Hygroscopicity [3]: not hygroscopic; Hygroscopicity / affinity for water [3]: not hygroscopic

Question: Which “Sublimation (result in words)” value [1] does the source give for CN1CCN2c3ncccc3Cc3ccccc3C2C1.CS(=O)(=O)O (stereo not drawn) [S-mirtazapine•methanesulfonic acid, S-mirtazapine methanesulfonic acid salt] here?
Answer: The value was “non-sublimation”.

Question: What about the Sublimate [1, 4] of the same compound?
Answer: The Sublimate was 0.1% and 0.0%.

Question: What about the “Hygroscopicity / affinity for water” value [3] of the same compound?
Answer: Its value is “non-hygroscopicity”.

Reference: US20070111993A1, “Pharmaceutical composition comprising a salt of mirtazapine” (AKZO NOBEL N.V., priority 2004, published 2007)
